According to patent US11019823B2, “Method of controlling water surface inhabiting pests” (SHA'KED MICROBIAL SOLUTIONS LTD., priority 2013, dated 2021):

Tests used:
[1] = Dissolution study: release of free available chlorine / NaDCC from floating pellets in deionized water (orthotolidine colorimetry, 436 nm); type: physicochemical
Procedure: The ability of the pellet to release free available chlorine from the water soluble NaDCC was measured over time using a colorimeric method. Three pellets were selected at random from the kilogram batch that was created. The dimensions and mass of each pellet was recorded and the pellets were added to an 800 ml high density polyethylene (HDPE) beaker filled with deionized water and covered with aluminum foil. NaDCC (0.1975 g) was added to a separate 800 ml plastic beaker as a control. 0.8 ml aliquots of each solution were pipetted into 50 ml volumetic flasks and brought to volume with deionized water. 10 ml aliquots of these diluted solutions were mixed with 100 μl of 0.1% orthotolidine in a vial, forming a clear, yellow solution. The solution was loaded into a cuvette and was analyzed using a Shimadzu UV160U UV-Vis Spectrophotometer at 436 nm.
Initial sample pulls occurred 15 minutes after the pellets and control sample were added to the water. Additional pulls were taken at about 2, 9, 11, 13, 15, 17, 24, and 36 hours.
Upon exposure to water, NaDCC breaks down to release free available chlorine that acts as an algae growth inhibitor. Orthotolidine reacts with the chlorine causing a color change allowing for colorimetic analysis to chart the dissolution of the NaDCC. The concentration of NaDCC released at each time point was calculated by constructing a calibration curve relating the free available chlorine response to the initial concentration of NaDCC. The initial concentration of NaDCC calculation is shown in Equation 1. The original aliquot of the control taken at the 15 minute mark was used to create standards ranging from 25-250 ppm. Concentration of initial NaDCC=initial mass of NaDCC/volume of deionized water Equation 1: 197.5 mg/0.800 L=246.9 ppm

[2] = test system: cyanobacterium Oscillatoria sp.; conditions: 1.2 g NaDCC per enclosure (Example 6)
[3] = test system: toxic cyanobacterium Oscillatoria sp.; conditions: 1.6 g NaDCC per enclosure of about 270 liter (Example 5)
[4] = test system: Culex quinquefasciatus eggs; assay: Mosquito egg bioassay in spot plates, probit analysis; type: in vivo
Procedure: Mosquito eggs were obtained from the Center for Disease control in Fort Collins, Colo. The eggs were counted and transferred to spot plates containing 8 ml of NaDCC anhydrous solution at 0, 50, 500, 5000, and 50,000 ppm. Each treatment concentration and control (0 ppm) was replicated 3 times within the same spot plate and transferred to an incubator set for 30° C. and 12 hrs of light and dark alterations for 25 hours. […] Larvae were counted as living, hatched dead, or unhatched dead 25 hrs after the bioassay was initiated. Larvae were only counted as hatched if they were completely free from their egg casing. Data were analyzed by probit analysis with the PROBIT Procedure in SAS (Version 9.2, Cary N.C.), producing an LC95 and natural response rate.

[5] = test system: Non-biting midge eggs (Chironomidae: Tanypodinae); conditions: a week, 30° C., probit analysis
Procedure: Non-biting midge eggs (Chironomidae: Tanypodinae) were obtained from the pond at Town Park, Auburn, Ala. The eggs were counted and transferred to spot plates containing 8 ml of NaDCC anhydrous solution at 0, 50, 500, 5000, and 50,000 ppm. Each treatment and control was replicated 3 times within the same spot plate and transferred to an incubator set for 30° C. and 12 hours of light and dark alterations for a week. Data were analyzed by probit analysis with the PROBIT Procedure in SAS (Version 9.2, Cary N.C.). Larvae were only counted as hatched if they were completely free from their egg casing.

A. aegypti eggs = assay: Mosquito egg bioassay in spot plates, probit analysis; type: in vivo, Aedes aegypti
Procedure: A. aegypti eggs were obtained from the Center for Disease control in Fort Collins, Colo. The eggs were counted and transferred to spot plate treatment or control wells, and placed in an incubator. Larvae were counted as living, hatched dead, or unhatched dead 72 hours after the bioassay was initiated. […] The LC95 for A. aegypti was 470 ppm.

Anopheles stevensi eggs = conditions: 72 hrs, 30° C., probit analysis
Procedure: Data were analyzed by probit analysis with the PROBIT Procedure in SAS (Version 9.2, Cary N.C.).

[6] = test system: non-motile eggs of the insects; assay: Concentrated hypochlorite on insect egg hatching; type: in vivo; conditions: 250-500 ppm of concentrated hypochlorite
Text: In certain aspects the methods of the present invention target the non-motile eggs of the insects. 250-500 ppm of concentrated hypochlorite caused 95% of egg populations not to hatch.

O=c1nc([O-])n(Cl)c(=O)n1Cl.[Na+] [NaDCC, sodium dichloroisocyanurate]
Concentration of NaDCC released ([1]; 0.25 hours): 241.5 ppm
Response ([1]; 0.25 hours, 436 nm, orthotolidine, 800 ml deionized water): 2.053 AU
Concentration of NaDCC released ([1]; 2.17 hours): 228.4 ppm
Response ([1]; 2.17 hours): 1.941 AU
Concentration of NaDCC released ([1]; 9.17 hours): 237.9 ppm
Response ([1]; 9.17 hours): 2.022 AU
Concentration of NaDCC released ([1]; 11.00 hours): 215.4 ppm
Response ([1]; 11.00 hours): 1.831 AU
Concentration of NaDCC released ([1]; 13.42 hours): 238.8 ppm
Response ([1]; 13.42 hours): 2.030 AU
Concentration of NaDCC released ([1]; 15.42 hours): 233.9 ppm
Response ([1]; 15.42 hours): 1.988 AU
Concentration of NaDCC released ([1]; 17.67 hours): 231.5 ppm
Response ([1]; 17.67 hours): 1.968 AU
Concentration of NaDCC released ([1]; 24.00 hours): 217.6 ppm
Response ([1]; 24.00 hours): 1.850 AU
Concentration of NaDCC released ([1]; 36.00 hours): 237.1 ppm
Response ([1]; 36.00 hours): 2.015 AU
effect on cyanobacterial infestation [2]: total elimination of the cyanobacterial infestation
effect on cyanobacterial infestation [3]: total elimination of the cyanobacterial infestation

O=c1nc([O-])n(Cl)c(=O)n1Cl.[Na+] [NaDCC anhydrous, Sodium Dichloroisocyanurate (NaDCC) Anhydrous]
state of egg shells ([4]; 5000 ppm treatment): mostly dissolved
state of egg shells ([4]; 50,000 ppm treatment): dissolved and unperceivable
LC95 ([4]; 25 hrs, 30° C., probit analysis): 93.8 ppm
LC95 [5]: 205.7 ppm
state of egg shells (A. aegypti eggs; 5000 ppm treatment): mostly dissolved
state of egg shells (A. aegypti eggs; 50,000 ppm treatment): dissolved and unperceivable
LC95 (A. aegypti eggs; 72 hours, probit analysis): 470 ppm
LC95 (Anopheles stevensi eggs): 270 ppm

OCl [hypochlorite]
egg populations not hatching [6]: 95%
